In experiment [1] the test system is inflammatory cell numbers in the broncho-alveolar lavage (BAL) fluid. The experiment is described as follows: Inflammatory cell counts in broncho-alveolar lavage (BAL) fluid of antigen-challenged sheep. Type of experiment: in vivo. Particulars: 1.0 mg/kg × 4 days, last dose 30 min prior to antigen challenge.
For experiment [2], the system named is Ascaris suum antigen-induced asthmatic response in conscious sheep. Description: Ascaris suum antigen-induced asthmatic response in conscious sheep: specific lung resistance and airway hyperreactivity. Type of experiment: in vivo. Here is the method:
The efficacy of Compound 2 for the treatment of asthma was evaluated in a validated model of Ascaris suum antigen-induced asthmatic response in conscious sheep (Abraham, W. M., Pharmacology of allergen-induced early and late airway responses and antigen-induced airway hyperresponsiveness in allergic sheep, Pulmonary Pharmacology, 1989, 2, 33-40).
(§1) Baseline dose response curves to aerosol carbachol were obtained 1-3 days prior to antigen challenge. Baseline values of specific lung resistance (SRL) were obtained and the sheep were then given a specified amount (mg) of the test compound as an inhaled aerosol at a specified time before antigen challenge. Post drug measurements of SRL were obtained and the sheep were then challenged with Ascaris suum antigen. Measurements of SRL were obtained immediately after challenge, hourly from 1-6 h after challenge and on the half-hour from 6½-8 h after challenge. Measurements of SRL were obtained 24 h after challenge followed by a 24 h post-challenge with carbachol to measure airway hyperreactivity.
Compound 2 was administered as an aerosol at 0.1 mg/Kg/dose, twice-a-day (BID) for three consecutive days, followed by a dose on day 4, 0.5 h prior to antigen challenge. Ascaris suum antigen challenge was given at the zero time point.

Experiment [3] relates to inflammatory cell numbers in the broncho-alveolar lavage (BAL) fluid. Description: Inflammatory cell counts in broncho-alveolar lavage (BAL) fluid of antigen-challenged sheep. It counts as in vivo. Here is the method:
as §1, with “hyperreactivity. […] Ascaris suum antigen challenge was given at the zero time point.” for “hyperreactivity.”

Experiment [4] deals with T1, human skin chymase (Homo sapiens, UniProt P23946).
T1 construct: human skin chymase (Cortex Biochem); purchased Cortex Biochem; host or cells: human skin (from the enzyme's name)
T1 sequence (P23946 22-247): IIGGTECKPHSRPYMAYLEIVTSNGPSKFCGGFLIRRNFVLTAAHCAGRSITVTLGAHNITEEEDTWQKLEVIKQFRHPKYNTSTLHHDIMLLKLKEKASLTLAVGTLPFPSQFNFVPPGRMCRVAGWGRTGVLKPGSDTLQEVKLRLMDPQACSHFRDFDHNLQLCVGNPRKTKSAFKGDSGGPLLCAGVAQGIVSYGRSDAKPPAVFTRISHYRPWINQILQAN
The experiment is described as follows: Enzyme-catalyzed hydrolysis assay, chymase (chromogenic substrate Suc-Ala-Ala-Pro-Phe-pNa). It counts as biochemical. Particulars: 10 nM enzyme, 0.7 mM substrate, pH 8.0, 37° C., 30 minutes. Here is the method:
(§2) Enzyme-catalyzed hydrolysis rates were measured spectrophotometrically using human neutrophil cathepsin G (Athens Research and Technology) or human skin chymase (Cortex Biochem), a chromogenic substrate (Suc-Ala-Ala-Pro-Phe-pNa) (Bachem) in aqueous buffer (100 mM Hepes, 500 mM NaCl, pH 7.4 for catG; 450 mM Tris, 1800 mM NaCl, pH 8.0 for chymase), and a microplate reader (Molecular Devices). […] Percent inhibition was calculated by comparing the initial reaction slopes of the samples without inhibitor to those with inhibitor. IC50 values were determined using a four parameter fit logistics model. The term “NT” indicates a compound that was not tested.

The target in experiment [5] is T2, human neutrophil cathepsin G (Homo sapiens, UniProt P08311).
T2 construct: human neutrophil cathepsin G (Athens Research and Technology); purchased Athens Research and Technology; host or cells: human neutrophils (from the enzyme's name)
T2 sequence (P08311 21-243 limits assumed): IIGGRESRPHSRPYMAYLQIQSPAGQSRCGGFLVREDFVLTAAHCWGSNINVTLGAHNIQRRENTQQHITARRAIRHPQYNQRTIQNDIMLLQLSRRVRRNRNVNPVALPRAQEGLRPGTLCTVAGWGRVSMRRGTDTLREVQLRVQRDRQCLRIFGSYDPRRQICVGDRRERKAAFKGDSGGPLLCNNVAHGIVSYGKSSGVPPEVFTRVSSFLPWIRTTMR
The experiment is described as follows: Enzyme-catalyzed hydrolysis assay, cathepsin G (chromogenic substrate Suc-Ala-Ala-Pro-Phe-pNa). Type of experiment: biochemical. Particulars: 70 nM enzyme, 5 mM substrate, pH 7.4, 37° C., 30 minutes; read-out: IC50 (μM) CatG. Here is the method: as §2

[6] abbreviates: 8 h Post Antigen, 1.0 mg/kg × 4 days, last dose 30 min prior to antigen challenge.
The mark [7] stands for this setting: 24 h Post Antigen, 1.0 mg/kg × 4 days, last dose 30 min prior to antigen challenge.
Where [8] appears, read: Baseline, 1.0 mg/kg × 4 days, last dose 30 min prior to antigen challenge.

Bounds are passed on as bounds.

With `CN(C(=O)c1cc2ccccc2cc1C(=O)C(c1cccc2ccccc12)P(=O)(O)O)C1CCN(C(=O)c2ccc3ccccc3c2)CC1` (centres unmarked) [Compound 2, [2-[3-[[methyl[1-(2-naphthalenylcarbonyl)-4-piperidinyl]amino]carbonyl]-2-naphthalenyl]-1-(1-naphthalenyl)-2-oxoethyl]-phosphonic acid], the entries for the “BAL Cell Count Eosinophils” value in experiment [1] (8 h Post Antigen), in experiment [1] (24 h Post Antigen) and in experiment [3] (setting [8]) were 0.37 ± 0.32 × 1000/mL, 0.04 ± 0.03 × 1000/mL and 0.00 × 1000/mL, respectively. Moreover, the “BAL Cell Count Macrophages” value in experiment [1] (8 h Post Antigen) is given as 77.85 ± 2.36 × 1000/mL; in experiment [3] (setting [7]) it was 75.16 ± 2.71 × 1000/mL; in experiment [3] (setting [8]), 69.06 ± 1.97 × 1000/mL. Further, the “BAL Cell Count Neutrophils” value in experiment [1] (24 h Post Antigen) is given as 3.86 ± 0.95 × 1000/mL; in experiment [3] (setting [6]), 3.17 ± 0.65 × 1000/mL; in experiment [3] (setting [8]), 12.66 ± 2.07 × 1000/mL. The “BAL Cell Count Lymphocytes” value in experiment [1] (Baseline) is 3.15 ± 0.79 × 1000/mL; in experiment [3] (setting [6]), 4.16 ± 1.10 × 1000/mL; in experiment [3] (setting [7]), 3.72 ± 0.77 × 1000/mL. In addition, the “early airway response (specific lung resistance, SRL)” value in experiment [2] (0-2 h after antigen challenge, aerosol 0.1 mg/Kg/dose BID for three days plus dose on day 4, 0.5 h prior to challenge, n=4 sheep/group, FIG. 1) is “dramatically reduced”. Besides, the “late airway response (specific lung resistance, SRL)” value in experiment [2] (6-8 h after antigen challenge, aerosol 0.1 mg/Kg/dose BID for three days plus dose on day 4, 0.5 h prior to challenge, n=4 sheep/group, FIG. 1) is given as “completely blocked”. Also, the “delayed airway hyperreactivity measured using carbachol challenge (PC 400)” value in experiment [2] (24 h post antigen challenge, FIG. 2) was “completely blocked”. In addition, the “rise in inflammatory cell numbers in the broncho-alveolar lavage (BAL) fluid” value in experiment [3] (after antigen challenge, sheep, summary of Table 5) was “blocked”.
As usually defined, the IC50 is the concentration at which inhibition is half-maximal. On to `CN(CC12CC3CC(CC(C3)C1)C2)C(=O)c1cc2ccccc2cc1C(=O)C(c1cccc2ccccc12)P(=O)(O)O` (centres unmarked) [Compound 28, [2-[1-[[methyl(tricyclo[3.3.1^3,7]dec-1-ylmethyl)amino]carbonyl]-2-naphthalenyl]-1-(1-naphthalenyl)-2-oxoethyl]-phosphonic acid], for which the 50% inhibitory concentration (IC50) in experiment [4] amounted to 0.036 ± 0.011 µM; in experiment [5], 0.4 ± 0.09 µM.
For `CN(C(=O)c1cc2ccccc2cc1C(=O)C(c1cccc2ccccc12)P(=O)(O)O)C1CC=C(c2ccccc2)CC1` (centres unmarked) [Compound 29, [2-[3-[[methyl(4-phenyl-3-cyclohexen-1-yl)amino]-carbonyl]-2-naphthalenyl]-1-(1-naphthalenyl)-2-oxoethyl]-phosphonic acid], in that order: 0.0082 ± 0.0028 µM and 0.15 ± 0.03 µM.
As to `O=C(NC1CCN(C(=O)c2ccc3ccccc3c2)CC1)c1cc2ccccc2cc1C(=O)C(c1cccc2ccccc12)P(=O)(O)O` (centres unmarked) [Compound 30, [1-(1-naphthalenyl)-2-[3-[[[1-(2-naphthalenylcarbonyl)-4-piperidinyl]amino]carbonyl]-2-naphthalenyl]-2-oxoethyl]-phosphonic acid], the IC50 in experiment [4] is 0.0158 ± 0.0008 µM; in experiment [5] it was 0.59 ± 0.04 µM.
As for `CN(C(=O)c1ccccc1C(=O)C(c1cccc2ccccc12)P(=O)(O)O)C1CCN(C(=O)c2ccc3ccccc3c2)CC1` (centres unmarked) [Compound 31, [2-[2-[[methyl[1-(2-naphthalenylcarbonyl)-4-piperidinyl]amino]carbonyl]phenyl]-1-(1-naphthalenyl)-2-oxoethyl]-phosphonic acid], the IC50 in experiment [4] was 15 ± 0.67 µM; in experiment [5] it was more than 100 µM.
`CN(C(=O)c1cc2ccccc2cc1C(=O)C(c1cccc2ccccc12)P(C)(=O)O)C1CCN(C(=O)c2ccc3ccccc3c2)CC1` (centres unmarked) [Compound 32, methyl[2-[3-[[methyl[1-(2-naphthalenylcarbonyl)-4-piperidinyl]amino]carbonyl]-2-naphthalenyl]-1-(1-naphthalenyl)-2-oxoethyl]-phosphinic acid]: the IC50 worked out at 0.31 µM in experiment [4] and 0.86 ± 0.03 µM in experiment [5].
For `CN(C(=O)c1cc2ccccc2cc1C(=O)C(c1csc2ccc(Cl)cc12)P(=O)(O)O)C1CCN(C(=O)c2ccc3ccccc3c2)CC1` (centres unmarked) [Compound 33, [1-(5-chlorobenzo[b]thien-3-yl)-2-[3-[[methyl[1-(2-naphthalenylcarbonyl)-4-piperidinyl]amino]carbonyl]-2-naphthalenyl]-2-oxoethyl]-phosphonic acid], in that order: 0.001 µM and 0.121 ± 0.007 µM.
Take `O=C(NC1CCN(C(=O)c2cc3ccccc3cc2C(=O)C(c2cccc3ccccc23)P(=O)(O)O)CC1)c1ccc2ccccc2c1` (centres unmarked) [Compound 34]: the IC50 in experiment [4] was 0.007 ± 0.001 µM; in experiment [5], 0.09 ± 0.04 µM.
Taken in the same sequence, the figures for “[2-[3-[(cyclohexylmethylamino)carbonyl]-2-naphthalenyl]-1-(1-naphthalenyl)-2-oxoethyl]-phosphonic acid [Compound 17]” were 0.0072 ± 0.0015 µM and 0.098 ± 0.026 µM.
For “[2-[3-[(cyclopentylmethylamino)carbonyl]-2-naphthalenyl]-1-(1-naphthalenyl)-2-oxoethyl]-phosphonic acid [Compound 21]”, in that order: 0.0096 ± 0.0034 µM and 0.07 ± 0.02 µM.
Turning to “[2-[3-[[(1-acetyl-4-piperidinyl)methylamino]carbonyl]-2-naphthalenyl]-1-(1-naphthalenyl)-2-oxoethyl]-phosphonic acid [Compound 26]”, the IC50 in experiment [4] amounted to 0.015 ± 0.001 µM; in experiment [5] it was 0.096 ± 0.018 µM.
Taken in the same sequence, the figures for “[2-[3-[[[1-[(2E)-3-(4-fluorophenyl)-1-oxo-2-propenyl]-3-pyrrolidinyl]methylamino]carbonyl]-2-naphthalenyl]-1-(1-naphthalenyl)-2-oxoethyl]-phosphonic acid [Compound 5]” were 0.2 ± 0.4 µM and 0.072 ± 0.021 µM.
On to “[2-[3-[[[1-[(6-hydroxy-2-naphthalenyl)carbonyl]-4-piperidinyl]methylamino]carbonyl]-2-naphthalenyl]-1-(1-naphthalenyl)-2-oxoethyl]-phosphonic acid [Compound 24]”, for which the half-maximal inhibitory concentration (IC50) came out at 0.0035 ± 0.0013 µM in experiment [4] and 0.078 ± 0.015 µM in experiment [5].
For “[2-[3-[[[1-[(6-methoxy-2-naphthalenyl)carbonyl]-3-pyrrolidinyl]methylamino]carbonyl]-2-naphthalenyl]-1-(1-naphthalenyl)-2-oxoethyl]-phosphonic acid [Compound 3]”, in that order: 0.072 ± 0.008 µM and 0.068 ± 0.019 µM.
For the compound “[2-[3-[[[4-(1,1-dimethylethyl)cyclohexyl]methylamino]carbonyl]-2-naphthalenyl]-1-(1-naphthalenyl)-2-oxoethyl]-phosphonic acid [Compound 22]”, the IC50 in experiment [4] amounted to 0.009 ± 0.023 µM; in experiment [5], 0.14 ± 0.04 µM.

The values above are taken from patent US8703957B2 (Janssen Pharmaceutica NV, priority 2001, dated 2014).
